{
  "source": "patent US5344922A",
  "about": "“4-hydroxyquinaldic acid derivatives” (priority 1992, dated 1994)",
  "key": {"[1]": {"target": "T1, NMDA receptor/channel complex (Rattus norvegicus, UniProt P35439)", "T1 construct": "buffy coat rat cortical membrane preparation; from tissue; host or cells: rat cerebral cortex, buffy coat membranes", "assay": "biochemical", "assay_type": "biochemical", "description": "(§1) The tissue was homogenized in a glass grinding vessel with a teflon pestle in ice-cold 0.32 M sucrose and centrifuged for 10 min at 1000×g. The resultant supernatant was decanted and recentrifuged at 20,000×g for 20 min. The pellet was resuspended in 20 volumes of ice-cold dH20 and centrifuged for 20 min at 8000×g. The supernatant and the buffy coat were then re-collected and recentrifuged at 48,000×g for 20 min. The pellet was resuspended in 20 volumes of ice-cold water and centrifuged for 20 min at 48,000×g, after which it was stored at -20° C. for not more than two weeks. On the day of the assay, the pellet was thawed, resuspended in 40 volumes of buffer, incubated at 37° C. for 20 min in the appropriate buffer, and centrifuged for 10 min at 48,000×g. The pellet was then resuspended in 40 volumes of buffer and recentrifuged at 48,000×g for 10 min. This step was repeated twice before the pellet finally resuspended in a buffer suitable for the particular binding assay. Protein concentrations were determined by the method described by Smith (1985).\nD. ^3 H-TCP Binding Assay\nThe dissociative anesthetics ketamine and phencyclidine (PCP) selectively antagonize depolarizations produced by NMDA.\n^3 H-TCP binding assays were initiated by addition of 100 μl aliquots of membrane homogenate (approximately 150 μg protein) to test tubes containing 5 nM ^3 H-TCP in the presence or absence of the test drug(s) dissolved in 10 mM HEPES buffer pH 7.5. The final volume in each tube was 1 ml, and tubes were incubated for 2 hr at 23° C. Non-specific binding was defined as that remaining in the presence of 30 μM PCP. The filtration procedure was used as described above except that the filters were presoaked for one hour in 0.03% polyethyleneimine (PEI) (Sigma) to reduce filter binding. Scintillation counting was performed as described above.\n(§2) Previously washed rat cortical membranes were resuspended at approximately 0.1 mg protein/ml in the appropriate buffer (pH 7.4 at 23° C.), and 30 ml were placed in each of 3 or 4 150×25 mm polystyrene culture dishes on a rotating shaker. A 200 μL aliquot of a 10 mM solution of 7-chloro-4-hydroxy-2-quinoline carbonyl azide dissolved in DMSO was added and the solution was mixed for 10 min in the dark. Photolysis was accomplished by exposure of the reaction mixture to 366 nm long-wave ultraviolet light (Transilluminator, Fotodyne, Model 3-3000) at a distance of 5 cm for 10 min with continuous mixing.\n(§3) The Hill slopes (nH) and maximal displacement of radioligand binding were estimated by non-linear curve-fitting to a sigmoidal algorithm using the EBDA portion of the LIGAND data analysis software package for the IBM-PC (Elsevier). K1 values were obtained from the LIGAND analysis of the same data. KD and Bmax estimates were obtained by non-linear curve-fitting of the saturation isotherm using programs from the same software package (Munson and Rodbard, 1980). All data analysis was performed on each of 3-7 individual experiments performed in triplicate (7 concentrations) or duplicate (10 concentrations). Reported values are the mean ±S.E.M. of these analyses. For displacement experiments, these values were plotted with the sigmoid curve taken as the average of the sigmoidal fits of each individual experiment."}, "NMDA receptor": {"test_system": "NMDA receptor", "assay": "Photolabeling of cortical membranes followed by SDS polyacrylamide gel electrophoresis", "assay_type": "binding, rat", "settings": "cortical membranes photolabeled, 366 nm; bands Rf 0.71 and 0.53", "description": "E. Photolabeling with 7-chloro-4-hydroxy-2-quinoline carbonyl azide\n(§4) Thus, in all experiments, 7-chloro-4-hydroxy-2-quinoline carbonyl azide was first dissolved at high concentrations (1-10 mM) in dimethylsulfoxide (DMSO) and then diluted in the appropriate physiological buffer. […] The appropriate DMSO control was performed at the same time, and no changes in the binding of radioligands were ever observed. This procedure, and all subsequent procedures where non-photolyzed material was desired, were performed under red light.\nas §2, with “Photolysis was accomplished by exposure of the reaction mixture to 366 nm long-wave ultraviolet light (Transilluminator, Fotodyne, Model 3-3000) at a distance of 5 cm for 10 min with continuous mixing.” left out\nCortical membranes were photolabeled with 7-chloro-4-hydroxy-2-quinoline as described in Example II, section E. Protein concentration of this preparation was determined using the BCA protein assay kit (Pierce, Rockford, Ill.). […]\nGels were removed and fluorescent bands visualized and recorded using a transilluminator (Fotodyne, New Berlin, Wis.) fitted with four 366nm UV bulbs (15 watts). […]"}, "NMDA recognition site": {"target": "NMDA recognition site", "assay": "NMDA-specific 3H-L-glutamate binding assay in cortical membranes", "parameters": "species or system rat", "description": "as §1, with “^3 H-Glycine (^3 H-GLY), ^3 H-TCP and NMDA specific ^3 H-GLU binding assays were performed in a buffy coat rat cortical membrane preparation (Jones et al., 1989). The tissue” for “The tissue”, “at 48,000×g. […] Protein concentrations” for “at 48,000×g. The pellet was then resuspended in 40 volumes of buffer and recentrifuged at 48,000×g for 10 min. This step was repeated twice before the pellet finally resuspended in a buffer suitable for the particular binding assay. Protein concentrations”, “Smith (1985). […]” for “Smith (1985).”\nFor equilibrium saturation experiments, different concentrations of ^3 H-glutamate (diluted with unlabeled L-glutamate) ranging from 10 to 320 nM in the presence or absence of test drug(s) were examined. Non-specific binding was defined as that remaining in the presence of 300 μM NMDA and was determined at the lowest and the highest concentration of ^3 H-L-glutamate. […]"}, "Solubility": {"assay": "Solubility", "assay_type": "physicochemical", "description": "as §4"}, "[2]": {"target": "T2, strychnine-insensitive glycine site associated with the NMDA receptor/channel complex (Rattus norvegicus, UniProt P35439)", "T2 construct": "buffy coat rat cortical membrane preparation; from tissue; host or cells: rat cerebral cortex, buffy coat membranes", "assay": "3H-glycine binding assay in cortical membranes", "settings": "for Hill slope (nH), displacement of 3H-glycine binding: mean ± S.E.M.", "description": "as §1, with “^3 H-Glycine (^3 H-GLY), ^3 H-TCP and NMDA specific ^3 H-GLU binding assays were performed in a buffy coat rat cortical membrane preparation (Jones et al., 1989). The tissue” for “The tissue”\nC. ^3 H-Glycine Binding Assay\n^3 H-glycine binding assays were initiated by addition of 100 μl aliquots of membrane homogenate (100-150 μg protein) to test tubes containing 20 nM ^3 H-glycine in the presence or absence of the test drug(s) dissolved in 50 mM Tris acetate or 50 mM Na-free HEPES buffer pH 7.5 for a final volume of 1 ml, followed by incubation for 30 min at 4° C. […] The filtration procedure and scintillation counting were performed as described above.\nas §3"}, "[3]": {"target": "T2, strychnine-insensitive glycine site associated with the NMDA receptor/channel complex", "settings": "read-out: K1 at the glycine site (reported); Fletcher and Lodge, 1988; cited from earlier work"}, "[4]": {"test_system": "NMDA-mediated neuronal response", "settings": "glycine-reversible; Fletcher and Lodge, 1988; cited from earlier work"}, "glycine modulatory site": {"test_system": "glycine modulatory site", "settings": "Kemp et al., 1988; cited from earlier work"}, "[5]": {"settings": "tissue treated with 7-chloro-4-hydroxyquinaldic acid and exposed to UV light"}},
  "note": "“And” between values parts separate entries of the source, which are not always exact repeats. Equal values may be shown once. Read-outs that look alike come from different tables or passages of the source.",
  "data": [
    {"compound": "NCC(=O)O", "note": "[glycine]", "values": [
      {"measurement": "slope of glycine concentration-response, 3H-TCP binding", "setting": "[1]", "value": "1.02 and 0.93 and 1.15"},
      {"measurement": "Emax", "setting": "[1]; read-out: maximal increase of 3H-TCP binding by glycine", "value": 150, "unit": "%"}
    ]},
    {"compound": "[N-]=[N+]=NC(=O)c1cc(O)c2ccc(Cl)cc2n1", "note": "[7-chloro-4-hydroxy-2-quinoline carbonyl azide]", "values": [
      {"measurement": "fluorescent bands on SDS polyacrylamide gel after photolabeling", "setting": "NMDA receptor", "value": "two distinct fluorescent bands"},
      {"measurement": "Ki", "setting": "NMDA recognition site; n=5, mean ± S.E.M., read-out: K1 for the NMDA site", "value": "101 ± 12", "unit": "µM"},
      {"measurement": "displacement of NMDA-specific 3H-L-glutamate binding", "setting": "NMDA recognition site; rat cortical membranes, FIG. 2B", "value": "less than 10%"},
      {"measurement": "solubility in polar solutions", "setting": "Solubility", "value": "limited solubility"},
      {"measurement": "mode of inhibition of glycine action on 3H-TCP binding, non-photolyzed", "setting": "[1]; non-photolyzed azide", "value": "competitive antagonism of the actions of glycine"},
      {"measurement": "inhibition at 10 µM", "setting": "[1]; read-out: decrease of 3H-TCP binding in the absence of added glycine", "value": 70, "unit": "%"},
      {"measurement": "mode of inhibition of glycine-enhanced 3H-TCP binding, UV irradiated", "setting": "[1]; tissue UV irradiated in the presence of azide", "value": "distinctly non-competitive inhibition of glycine-enhanced ^3 H-TCP binding"},
      {"measurement": "Ki", "setting": "[2]", "value": "2.4 ± 0.2", "unit": "µM"},
      {"measurement": "decrease in the apparent affinity for the 3H-glycine binding site on introduction of an azido group", "setting": "[2]; azide relative to 7-chloro-4-hydroxyquinaldic acid", "value": 5, "unit": "fold"},
      {"measurement": "mode of displacement of 3H-glycine binding", "setting": "[2]; rat cortical membranes, red light", "value": "apparently competitive"},
      {"measurement": "Hill slope (nH), displacement of 3H-glycine binding", "setting": "[2]; rat cortical membranes", "value": "0.90±0.08"},
      {"measurement": "selectivity for the 3H-glycine binding site", "setting": "[2]; relative to the NMDA recognition site labeled by 3H-L-glutamate", "value": "selective affinity for the ^3 H-glycine binding site relative to the NMDA recognition site"}
    ]},
    {"compound": "NC1CCN(O)C1=O", "note": "(stereo not drawn) [HA-966, 1-hydroxy-3-aminopyrrolidone-2]", "values": [
      {"measurement": "Ki", "setting": "[3]", "value": "~5", "unit": "µM"},
      {"measurement": "effect on NMDA-mediated neuronal response", "setting": "[4]", "value": "reduce NMDA-mediated neuronal response in a glycine-reversible manner"}
    ]},
    {"compound": "O=C(O)c1cc(O)c2ccc(Cl)cc2n1", "note": "[7-chloro-4-hydroxyquinaldic acid]", "values": [
      {"measurement": "reduction of 3H-TCP binding in the absence of added glycine", "setting": "[1]; [5]", "value": 100, "unit": "%"},
      {"measurement": "rightward parallel shift of the glycine concentration-response curve", "setting": "[1]; [5]", "value": 4, "unit": "fold"},
      {"measurement": "activity at the glycine modulatory site", "setting": "glycine modulatory site", "value": "selective antagonist of the glycine modulatory site"},
      {"measurement": "Ki", "setting": "[2]", "value": "0.49 ± 0.05", "unit": "µM"},
      {"measurement": "Hill slope (nH), displacement of 3H-glycine binding", "setting": "[2]; rat cortical membranes", "value": "0.74±0.03"}
    ]}
  ]
}
